Laboratory results reported in patent publication US9756860B2, “Antimicrobial composition of ortho phenylphenol and silver” (Rohm and Haas Company, priority 2011, dated 2017).
Where two headings read alike, the source gives them in different places.

Key:
Format in all cases: cell-based
[1] = system: Candida albicans ATCC#10203; assay: MIC / synergy index test in 96 well microtiter plates, yeast; conditions: C. albicans, ppm active; for MIC: Candida albicans, ATCC10203, alone, read-out: MIC of compound acting alone (CA / CB)
Description: (§1) Ortho phenylphenol and silver are evaluated for synergy by determining the synergy index (S.I.) of the combination. Synergy index is calculated based on minimum inhibitory concentrations (MIC) of two antimicrobial compounds (A and B) alone and in combinations. The tests organisms are Gram negative bacteria (Pseudomonas aeruginosa), Gram positive bacteria (Staphylococcus aureus), yeast (Candida albicans) and mold (Aspergillus niger). Contact time for the bacteria is 24 and 48 hours, yeast is 48 and 72 hrs, and 3 and 7 days for mold. The test is carried out in 96 well microtiter plates.
(§2) SI is calculated as follows: Ca/CA+Cb/CB=Synergy Index (“SI”) Wherein: • CA=concentration of compound A in ppm, acting alone, which produced an end point (MIC of Compound A). • Ca=concentration of compound A in ppm, in the mixture, which produced an end point. • CB=concentration of compound B in ppm, acting alone, which produced an end point (MIC of Compound B). • Cb=concentration of compound B in ppm, in the mixture, which produced an end point. When the sum of Ca/CA and Cb/CB is greater than one, antagonism is indicated.

[2] = system: Aspergillus niger ATCC# 16404; assay: MIC / synergy index test in 96 well microtiter plates, mold; conditions: A. niger, ppm active
Description: as §1, §2

[3] = system: Staphylococcus aureus ATCC# 6538; assay: MIC / synergy index test in 96 well microtiter plates, Gram positive bacteria; conditions: S. aureus, ppm active; for MIC: Staphylococcus aureus, ATCC6538, alone, read-out: MIC of compound acting alone (CA / CB)
Description: as §1, §2

[4] = system: Pseudomonas aeruginosa ATCC # 15442; assay: MIC / synergy index test in 96 well microtiter plates, Gram negative bacteria; conditions: Ps. aeruginosa, ppm active; for MIC: Pseudomonas aeruginosa, ATCC15442, alone, read-out: MIC of compound acting alone (CA / CB)
Description: as §1, §2

O=[N+]([O-])[O-].[Ag+] [AgNO3, Silver Nitrate]
MIC of compound acting alone (CA / CB) ([1]; contact time 48 hrs): 10 ppm | MIC of compound acting alone (CA / CB) ([1]; contact time 72 hrs): 10 ppm | MIC of compound acting alone (CA / CB) ([2]; contact time 3rd day): 3 ppm | MIC of compound acting alone (CA / CB) ([2]; contact time 7th day): 10 ppm | MIC of compound acting alone (CA / CB) ([3]; contact time 24 hrs): 6 ppm | MIC of compound acting alone (CA / CB) ([3]; contact time 48 hrs): 8 ppm | MIC of compound acting alone (CA / CB) ([4]; contact time 24 hrs): 0.4 ppm | MIC of compound acting alone (CA / CB) ([4]; contact time 48 hrs): 1 ppm

Oc1ccccc1-c1ccccc1 [OPP, ortho-phenylphenol]
MIC ([1]; contact time 48 hrs): 150 µg/mL | MIC ([1]; contact time 72 hrs): 150 µg/mL | MIC of compound acting alone (CA / CB) ([2]; contact time 3rd day): 75 ppm | MIC ([2]; Aspergillus niger, ATCC16404, contact time 7th day, alone, read-out: MIC of compound acting alone (CA / CB)): 75 µg/mL | MIC ([3]; contact time 24 hrs): 200 µg/mL | MIC ([3]; contact time 48 hrs): 200 µg/mL | MIC ([4]; contact time 24 hrs): 500 µg/mL | MIC ([4]; contact time 48 hrs): 500 µg/mL
